Experiment [1] deals with T1, Procathepsin L (Homo sapiens, UniProt P07711). Briefly: Inhibition of recombinant human Cathepsin L using Z-Phe-Arg-aminomethylcoumarin as substrate.
For experiment [2], the species on record is Homo sapiens. Briefly: Selectivity index, ratio of IC50 for human Cathepsin B to IC50 for recombinant human Cathepsin L using Z-Phe-Arg-aminomethylcoumarin as substrate.
The target of experiment [3] is T1, Procathepsin L. Briefly: Irreversible inhibition of recombinant human cathepsin L using Z-Phe-Arg-aminomethylcoumarin as substrate.
Target sequence in this assay (P07711 whole entry): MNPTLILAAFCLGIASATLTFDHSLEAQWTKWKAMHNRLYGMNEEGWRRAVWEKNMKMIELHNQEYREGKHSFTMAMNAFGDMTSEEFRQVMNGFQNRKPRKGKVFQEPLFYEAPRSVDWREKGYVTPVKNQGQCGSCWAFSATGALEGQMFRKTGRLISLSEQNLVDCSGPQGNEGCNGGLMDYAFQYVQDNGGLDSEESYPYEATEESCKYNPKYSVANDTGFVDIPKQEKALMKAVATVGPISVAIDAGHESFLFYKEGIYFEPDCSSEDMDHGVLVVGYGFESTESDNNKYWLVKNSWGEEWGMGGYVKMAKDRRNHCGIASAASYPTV
Experiment [4] is filed under the species Homo sapiens. Briefly: Selectivity index, ratio of IC50 for human Cathepsin V to IC50 for recombinant human Cathepsin L using Z-Phe-Arg-aminomethylcoumarin as substrate.
The target of experiment [5] is T2, Cathepsin L2 (Homo sapiens, UniProt O60911).
T2 sequence (O60911 whole entry): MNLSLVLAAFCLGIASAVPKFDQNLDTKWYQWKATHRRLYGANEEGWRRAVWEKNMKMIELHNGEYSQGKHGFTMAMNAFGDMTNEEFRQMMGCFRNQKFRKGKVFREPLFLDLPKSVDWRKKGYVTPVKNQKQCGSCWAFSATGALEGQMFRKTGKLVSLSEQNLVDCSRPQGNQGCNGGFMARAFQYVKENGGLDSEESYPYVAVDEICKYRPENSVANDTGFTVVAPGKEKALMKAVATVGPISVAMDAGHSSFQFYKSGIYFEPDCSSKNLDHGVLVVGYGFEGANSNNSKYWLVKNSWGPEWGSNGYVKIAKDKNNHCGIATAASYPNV
Briefly: Inhibition of human Cathepsin V using Z-Phe-Arg-aminomethylcoumarin as substrate.

For experiment [6], the target named is T3, Pro-cathepsin H (Homo sapiens, UniProt P09668).
T3 sequence (P09668 whole entry): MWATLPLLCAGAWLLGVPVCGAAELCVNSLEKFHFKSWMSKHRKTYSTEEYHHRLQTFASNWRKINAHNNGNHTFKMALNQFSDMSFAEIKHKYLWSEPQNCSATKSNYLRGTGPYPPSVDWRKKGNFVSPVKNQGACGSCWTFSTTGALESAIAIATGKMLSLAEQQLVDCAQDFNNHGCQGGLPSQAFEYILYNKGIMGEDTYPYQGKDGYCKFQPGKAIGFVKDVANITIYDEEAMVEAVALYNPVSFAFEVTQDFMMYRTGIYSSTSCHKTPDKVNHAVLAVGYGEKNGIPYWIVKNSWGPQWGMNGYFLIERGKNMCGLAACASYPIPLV
Briefly: Inhibition of human Cathepsin H using Arg-aminomethylcoumarin as substrate.

In experiment [7] the target is T2, Cathepsin L2. Briefly: Inhibition of human Cathepsin V using Z-Phe-Arg-aminomethylcoumarin as substrate preincubated for 30 mins followed by substrate addition.
Experiment [8] deals with T1, Procathepsin L. Briefly: Inhibition of recombinant human Cathepsin L using Z-Phe-Arg-aminomethylcoumarin as substrate preincubated for 30 mins followed by substrate addition.
Target sequence in this assay (P07711 whole entry): as the sequence (P07711 whole entry) above
Experiment [9] concerns the target T3, Pro-cathepsin H. Briefly: Inhibition of human Cathepsin H using Arg-aminomethylcoumarin as substrate preincubated for 30 mins followed by substrate addition.
The species named for experiment [10] is Homo sapiens. Briefly: Selectivity index, ratio of IC50 for human Cathepsin V to IC50 for recombinant human Cathepsin L using Z-Phe-Arg-aminomethylcoumarin as substrate preincubated for 30 mins followed by substrate addition.
Experiment [11] has as its target T1, Procathepsin L. Briefly: Inhibition of recombinant human Cathepsin L assessed as inhibition of activity-based probe DCG-04 labelling preincubated for 30 mins followed by DCG-04 addition measured after 30 mins.
Target sequence in this assay (P07711 114-333 limits assumed): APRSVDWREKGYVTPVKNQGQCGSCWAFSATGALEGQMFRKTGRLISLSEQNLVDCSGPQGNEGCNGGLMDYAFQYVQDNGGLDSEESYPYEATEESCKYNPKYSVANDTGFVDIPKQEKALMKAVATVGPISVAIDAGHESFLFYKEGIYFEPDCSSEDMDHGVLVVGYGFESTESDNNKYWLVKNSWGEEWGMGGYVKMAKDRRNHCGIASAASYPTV
The species named for experiment [12] is Homo sapiens. Briefly: Selectivity index, ratio of IC50 for human Cathepsin B to IC50 for recombinant human Cathepsin L after 30 mins using Z-Phe-Arg-aminomethylcoumarin as substrate preincubated for 30 mins followed by substrate addition.
In experiment [13] the target is T4, Cathepsin B (Homo sapiens, UniProt P07858). Briefly: Inhibition of human Cathepsin B using Z-Phe-Arg-aminomethylcoumarin as substrate.
Experiment [14] deals with T1, Procathepsin L. Briefly: Irreversible inhibition of recombinant human Cathepsin L using Z-Phe-Arg-aminomethylcoumarin as substrate assessed as residual activity at 10 fold IC50 preincubated for 30 mins followed by 100 fold dilution measured for 2 hrs by fluorescence assay.
Target sequence in this assay (P07711 114-333 limits assumed): as above
In experiment [15] the target is T4, Cathepsin B. Briefly: Inhibition of human Cathepsin B using Z-Phe-Arg-aminomethylcoumarin as substrate preincubated for 30 mins followed by substrate addition.

The source made the active and inactive calls. No cut-off for these calls is given here.

What is called IC50 is the point on the concentration scale where inhibition reaches its midpoint. For the compound `CC[C@H](C)[C@@H](C(=O)O[C@@H](CC(C)C)C(=O)N[C@@H](CC(C)C)C(=O)N[C@@H](C)/C=C/C(=O)N1C(=O)C=C(OC)[C@@H]1C)N(C)C` [GALLINAMIDE A], the IC50 in experiment [1] was 0.047 µM; in experiment [5], 0.46 µM; in experiment [6], above 30 µM; in experiment [7], 0.14 µM; in experiment [8], 0.005 µM; in experiment [9], above 30 µM. Besides, the IC50 in [13] was 4.2 µM; in experiment [15], 1.7 µM. In addition, the inhibition entry in experiment [1] (TDE = time-dependent effect) is “tde”; in experiment [11] it was “Dose-dependent effect”. Further, the Ratio IC50 in experiment [2] worked out at 91; in [4], 10; in experiment [10], 28; in [12], 320. Further, the Ki in experiment [3] amounted to 9000 M⁻¹ s⁻¹. Also, the inhibition entry in experiment [14] was “Active”.

The values above are taken from ChEMBL document CHEMBL3102856, “The marine cyanobacterial metabolite gallinamide A is a potent and selective inhibitor of human cathepsin L” (J Nat Prod, 2014).
